In patent US12644097B2, “Differentiation of trophectoderm lineage cells from pluripotent stem cells” (The United States of America, as represented by the …, priority 2020, dated 2026):

Legend:
[1] = cited from earlier work; for IC50: as described in Sidrauski et al. eLIFE 2:e00498 (2013)
[2] = system: trophoblast stem-like cells; assay: Passaging of trophoblast stem-like cells in TE3 medium with or without Chroman 1 or CEPT supplementation; assay type: cell-based, human; conditions: additional 25 nM Chroman 1, alone or as component of CEPT, in TE3 medium (total 50 nM Chroman 1) for first 24 hours after passaging; WA09-derived cells, reproduced with JHU191i, JHU198i, MCW032i, WA07
Method: To generate self-renewing trophoblast stem-like cells from the syncytiotrophoblast-like structures, the syncytiotrophoblast-like structures were cultured in TE3 medium: TE2 medium supplemented with 300 nM CHIR98014, 100 ng/ml EGF, 50 ng/ml HGF, 80 ng/ml R-spondin 1, 50 ng/ml R-spondin 3, 2.5 μM prostaglandin E2 and 25 nM Chroman 1. Trophoblast stem-like cells appeared in the cultures and started proliferating after a very short time following the start of the culturing into TE3 medium. The cells created compact epithelial-like colonies with cobblestone morphology and clearly defined border. The individual cells gradually became more compact. This morphological transformation was most obvious at passage 3 performed in TE3 medium.
The trophoblast stem-like cells were cultured in TE3 medium with or without CEPT supplementation, and also with or without Chroman 1 supplementation. For Chroman 1 or CEPT supplementation, when the trophoblast stem-like cells were passaged, the cells were seeded into TE3 medium supplemented with either an additional 25 nM Chroman 1 (for Chroman 1 supplementation) or CEPT containing 25 nM Chroman 1 (for CEPT supplementation). Since TE3 medium already contained 25 nM Chroman 1, only another 25 nM was added either alone or as a component of CEPT, so that the total concentration of Chroman 1 in TE3 medium was 50 nM for the first 24 hours after passaging. […]

SMILES | IC50 [1] | effect of supplementation at passaging on trophoblast stem-like cells [2] | potency of trans-ISRIB relative to cis-ISRIB ([1]; trans-ISRIB more potent than cis-ISRIB, Sidrauski et al. 2013)
O=C(COc1ccc(Cl)cc1)NC1CCC(NC(=O)COc2ccc(Cl)cc2)CC1 (stereo not drawn) [cis-ISRIB] | 600 nM |  | 
COc1ccc2c(c1)C[C@H](C(=O)Nc1ccc(-c3cn[nH]c3)cc1OCCN(C)C)CO2 [Chroman 1, (3S)—N-{2-[2-(Dimethylamino)ethoxy]-4-(1H-pyrazol-4-yl)phenyl}-6-methoxy-3,4-dihydro-2H-1-benzopyran-3-carboxamide] |  | benefited | 
O=C(COc1ccc(Cl)cc1)N[C@H]1CC[C@H](NC(=O)COc2ccc(Cl)cc2)CC1 [trans-ISRIB, N,N′-((1r,4r)-cyclohexane-1,4-diyl)bis(2-(4-chlorophenoxy)acetamide)] | 5 nM |  | 100 fold
